Test results: patent US10206394B2, “Herbicidal compounds” (Syngenta Participations AG, priority 2014, dated 2019)
Like-named read-outs stand apart in the source and are kept apart here.

How the values were obtained:
Experiment in all cases: Glasshouse assay for herbicidal activity (pre- and post-emergence), percentage phytotoxicity
Type in all cases: in vivo
[1] = test system: Alopecurus myosuroides (ALOMY); conditions: Alopecurus myosuroides
How it was run: (§1)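 Potted test plants in standard soil received the compound pre-emergence (day 1) or post-emergence (about day 12). Evaluation: visual damage score from 0% (none) to 100% (total), 15 days after application post-emergence, 20 days pre-emergence.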

Avena fatua (AVEFA) = conditions: Avena fatua
How it was run: as §1

[2] = test system: Echinochloa crus-galli (ECHCG); conditions: Echinochloa crus-galli
How it was run: as §1

Lolium perenne (LOLPE) = conditions: Lolium perenne
How it was run: as §1

[3] = post-emergence, 360 h, Rate 250 g/ha, post-emergence, visual assessment 15 DAA, 100%=total damage, 0%=no damage, read-out: Post-emergence herbicidal activity (percentage phytotoxicity) ALOMY POST
[4] = pre-emergence, 480 h, Rate 250 g/ha, pre-emergence, visual assessment 20 DAA, 100%=total damage, 0%=no damage, read-out: Pre-emergence herbicidal activity (percentage phytotoxicity) ALOMY PRE
[5] = post-emergence, 360 h, Rate 250 g/ha, post-emergence, visual assessment 15 DAA, 100%=total damage, 0%=no damage, read-out: Post-emergence herbicidal activity (percentage phytotoxicity) AVEFA POST
[6] = pre-emergence, 480 h, Rate 250 g/ha, pre-emergence, visual assessment 20 DAA, 100%=total damage, 0%=no damage, read-out: Pre-emergence herbicidal activity (percentage phytotoxicity) AVEFA PRE
[7] = post-emergence, 360 h, Rate 250 g/ha, post-emergence, visual assessment 15 DAA, 100%=total damage, 0%=no damage, read-out: Post-emergence herbicidal activity (percentage phytotoxicity) ECHCG POST
[8] = pre-emergence, 480 h, Rate 250 g/ha, pre-emergence, visual assessment 20 DAA, 100%=total damage, 0%=no damage, read-out: Pre-emergence herbicidal activity (percentage phytotoxicity) ECHCG PRE
[9] = post-emergence, 360 h, Rate 250 g/ha, post-emergence, visual assessment 15 DAA, 100%=total damage, 0%=no damage, read-out: Post-emergence herbicidal activity (percentage phytotoxicity) LOLPE POST
[10] = pre-emergence, 480 h, Rate 250 g/ha, pre-emergence, visual assessment 20 DAA, 100%=total damage, 0%=no damage, read-out: Pre-emergence herbicidal activity (percentage phytotoxicity) LOLPE PRE
[11] = post-emergence, 360 h, POST-emergence, rate 250 g/ha, visual score 15 DAA (100%=total damage, 0%=no damage), read-out: Post-emergence herbicidal activity (percentage phytotoxicity) ALOMY POST
[12] = pre-emergence, 480 h, PRE-emergence, rate 250 g/ha, visual score 20 DAA (100%=total damage, 0%=no damage), read-out: Pre-emergence herbicidal activity (percentage phytotoxicity) ALOMY PRE
[13] = post-emergence, 360 h, POST-emergence, rate 250 g/ha, visual score 15 DAA (100%=total damage, 0%=no damage), read-out: Post-emergence herbicidal activity (percentage phytotoxicity) AVEFA POST
[14] = pre-emergence, 480 h, PRE-emergence, rate 250 g/ha, visual score 20 DAA (100%=total damage, 0%=no damage), read-out: Pre-emergence herbicidal activity (percentage phytotoxicity) AVEFA PRE
[15] = post-emergence, 360 h, POST-emergence, rate 250 g/ha, visual score 15 DAA (100%=total damage, 0%=no damage), read-out: Post-emergence herbicidal activity (percentage phytotoxicity) ECHCG POST
[16] = pre-emergence, 480 h, PRE-emergence, rate 250 g/ha, visual score 20 DAA (100%=total damage, 0%=no damage), read-out: Pre-emergence herbicidal activity (percentage phytotoxicity) ECHCG PRE
[17] = post-emergence, 360 h, POST-emergence, rate 250 g/ha, visual score 15 DAA (100%=total damage, 0%=no damage), read-out: Post-emergence herbicidal activity (percentage phytotoxicity) LOLPE POST
[18] = pre-emergence, 480 h, PRE-emergence, rate 250 g/ha, visual score 20 DAA (100%=total damage, 0%=no damage), read-out: Pre-emergence herbicidal activity (percentage phytotoxicity) LOLPE PRE

Row | SMILES | pest or weed control at 250 g/ha [1, 3] [%] | pest or weed control at 250 g/ha [1, 4] [%] | pest or weed control at 250 g/ha (Avena fatua (AVEFA); [5]) [%] | pest or weed control at 250 g/ha (Avena fatua (AVEFA); [6]) [%] | pest or weed control at 250 g/ha [2, 7] [%] | pest or weed control at 250 g/ha [2, 8] [%] | pest or weed control at 250 g/ha (Lolium perenne (LOLPE); [9]) [%] | pest or weed control at 250 g/ha (Lolium perenne (LOLPE); [10]) [%] | pest or weed control at 250 g/ha [1, 11] [%] | pest or weed control at 250 g/ha [1, 12] [%] | pest or weed control at 250 g/ha (Avena fatua (AVEFA); [13]) [%] | pest or weed control at 250 g/ha (Avena fatua (AVEFA); [14]) [%] | pest or weed control at 250 g/ha [2, 15] [%] | pest or weed control at 250 g/ha [2, 16] [%] | pest or weed control at 250 g/ha (Lolium perenne (LOLPE); [17]) [%] | pest or weed control at 250 g/ha (Lolium perenne (LOLPE); [18]) [%] | also measured
1 | CCN(C)C(=O)CC1CC(=O)C(c2c(C)cc(-c3ncc(Cl)cn3)cc2C)C1=O (stereo not drawn) [Compound B347] | 100 | 100 | 100 | 100 | 100 | 100 | 100 | 100 |  |  |  |  |  |  |  |  | 
2 | Cc1cc(-c2ncc(Cl)cc2F)cc(C)c1C1C(=O)CC(CC(=O)NCc2ccc(C(F)(F)F)nc2)C1=O (stereo not drawn) [Compound A115] |  |  |  |  |  |  |  |  |  |  |  |  |  |  |  |  | pest or weed control at 250 g/ha ([1]; post-emergence, 360 h, Rate 250 g/ha, post-emergence, assessed visually 15 DAA, 100%=total damage, 0%=no damage, read-out: Post-emergence herbicidal activity (percentage phytotoxicity) ALOMY POST): 100%; pest or weed control at 250 g/ha ([1]; pre-emergence, 480 h, Rate 250 g/ha, pre-emergence, assessed visually 20 DAA, 100%=total damage, 0%=no damage, read-out: Pre-emergence herbicidal activity (percentage phytotoxicity) ALOMY PRE): 90%; pest or weed control at 250 g/ha (Avena fatua (AVEFA); post-emergence, 360 h, Rate 250 g/ha, post-emergence, assessed visually 15 DAA, 100%=total damage, 0%=no damage, read-out: Post-emergence herbicidal activity (percentage phytotoxicity) AVEFA POST): 100%; pest or weed control at 250 g/ha (Avena fatua (AVEFA); pre-emergence, 480 h, Rate 250 g/ha, pre-emergence, assessed visually 20 DAA, 100%=total damage, 0%=no damage, read-out: Pre-emergence herbicidal activity (percentage phytotoxicity) AVEFA PRE): 90%; pest or weed control at 250 g/ha ([2]; post-emergence, 360 h, Rate 250 g/ha, post-emergence, assessed visually 15 DAA, 100%=total damage, 0%=no damage, read-out: Post-emergence herbicidal activity (percentage phytotoxicity) ECHCG POST): 100%; pest or weed control at 250 g/ha ([2]; pre-emergence, 480 h, Rate 250 g/ha, pre-emergence, assessed visually 20 DAA, 100%=total damage, 0%=no damage, read-out: Pre-emergence herbicidal activity (percentage phytotoxicity) ECHCG PRE): 90%; pest or weed control at 250 g/ha (Lolium perenne (LOLPE); post-emergence, 360 h, Rate 250 g/ha, post-emergence, assessed visually 15 DAA, 100%=total damage, 0%=no damage, read-out: Post-emergence herbicidal activity (percentage phytotoxicity) LOLPE POST): 100%; pest or weed control at 250 g/ha (Lolium perenne (LOLPE); pre-emergence, 480 h, Rate 250 g/ha, pre-emergence, assessed visually 20 DAA, 100%=total damage, 0%=no damage, read-out: Pre-emergence herbicidal activity (percentage phytotoxicity) LOLPE PRE): 90%
3 | Cc1cc(C)c(C2C(=O)CC(CC(=O)NCCF)C2=O)c(C)c1 (stereo not drawn) [Compound B61] |  |  |  |  |  |  |  |  |  |  |  |  |  |  |  |  | pest or weed control at 250 g/ha ([1]; post-emergence, 360 h, 250 g/ha, post-emergence, 15 DAA, visual assessment (100%=total damage, 0%=no damage), read-out: Post-emergence herbicidal activity (percentage phytotoxicity) ALOMY POST): 80%; pest or weed control at 250 g/ha ([1]; pre-emergence, 480 h, 250 g/ha, pre-emergence, 20 DAA, visual assessment (100%=total damage, 0%=no damage), read-out: Pre-emergence herbicidal activity (percentage phytotoxicity) ALOMY PRE): 70%; pest or weed control at 250 g/ha (Avena fatua (AVEFA); post-emergence, 360 h, 250 g/ha, post-emergence, 15 DAA, visual assessment (100%=total damage, 0%=no damage), read-out: Post-emergence herbicidal activity (percentage phytotoxicity) AVEFA POST): 90%; pest or weed control at 250 g/ha (Avena fatua (AVEFA); pre-emergence, 480 h, 250 g/ha, pre-emergence, 20 DAA, visual assessment (100%=total damage, 0%=no damage), read-out: Pre-emergence herbicidal activity (percentage phytotoxicity) AVEFA PRE): 70%; pest or weed control at 250 g/ha ([2]; post-emergence, 360 h, 250 g/ha, post-emergence, 15 DAA, visual assessment (100%=total damage, 0%=no damage), read-out: Post-emergence herbicidal activity (percentage phytotoxicity) ECHCG POST): 90%; pest or weed control at 250 g/ha ([2]; pre-emergence, 480 h, 250 g/ha, pre-emergence, 20 DAA, visual assessment (100%=total damage, 0%=no damage), read-out: Pre-emergence herbicidal activity (percentage phytotoxicity) ECHCG PRE): 90%; pest or weed control at 250 g/ha (Lolium perenne (LOLPE); post-emergence, 360 h, 250 g/ha, post-emergence, 15 DAA, visual assessment (100%=total damage, 0%=no damage), read-out: Post-emergence herbicidal activity (percentage phytotoxicity) LOLPE POST): 90%; pest or weed control at 250 g/ha (Lolium perenne (LOLPE); pre-emergence, 480 h, 250 g/ha, pre-emergence, 20 DAA, visual assessment (100%=total damage, 0%=no damage), read-out: Pre-emergence herbicidal activity (percentage phytotoxicity) LOLPE PRE): 90%
4 | Cc1cc(-c2ncc(Cl)cn2)cc(C)c1C1C(=O)CC(CC(=O)NCc2cccs2)C1=O (stereo not drawn) [Compound B353] | 90 | 80 | 100 | 90 | 100 | 100 | 100 | 90 |  |  |  |  |  |  |  |  | 
5 | CCc1cc(-n2cc(Cl)cn2)cc(C)c1C1C(=O)CC(CC(=O)NCC2CC2)C1=O (stereo not drawn) [Compound B237] |  |  |  |  |  |  |  |  | 100 | 100 | 100 | 90 | 100 | 90 | 100 | 90 | 
6 | C#CCNC(=O)CC1CC(=O)C(c2c(C)cc(OCC(F)(F)F)cc2CC)C1=O (stereo not drawn) [Compound B166] |  |  |  |  |  |  |  |  | 100 | 100 | 100 | 100 | 100 | 100 | 100 | 100 | 
